Molecular target: T1, gelatinase A (Homo sapiens, UniProt P08253)
T1 construct: endogenous in cells; host or cells: human normal skin dermal fibroblasts (HNDF)
T1 sequence (P08253 110-660): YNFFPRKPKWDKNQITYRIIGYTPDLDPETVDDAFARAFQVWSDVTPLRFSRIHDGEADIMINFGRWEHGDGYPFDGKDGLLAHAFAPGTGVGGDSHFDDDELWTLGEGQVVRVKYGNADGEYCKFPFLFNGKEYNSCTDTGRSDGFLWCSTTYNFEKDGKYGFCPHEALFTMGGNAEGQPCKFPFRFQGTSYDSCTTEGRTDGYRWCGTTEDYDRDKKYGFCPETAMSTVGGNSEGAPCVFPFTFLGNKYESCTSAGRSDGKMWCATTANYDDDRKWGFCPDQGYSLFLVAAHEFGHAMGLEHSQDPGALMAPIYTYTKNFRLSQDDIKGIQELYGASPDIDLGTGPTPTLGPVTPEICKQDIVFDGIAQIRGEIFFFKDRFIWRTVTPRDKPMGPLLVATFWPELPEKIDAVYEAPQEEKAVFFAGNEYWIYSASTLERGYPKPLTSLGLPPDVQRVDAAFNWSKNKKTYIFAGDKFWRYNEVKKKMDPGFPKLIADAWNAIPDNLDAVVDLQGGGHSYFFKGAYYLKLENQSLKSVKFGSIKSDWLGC
Assay: Inhibitory activity against gelatinase A (FITC-labeled gelatin degradation)
Assay type: biochemical
Conditions: progelatinase A from human normal skin dermal fibroblasts (HNDF), APMA-activated, 2 hours at 37° C., read-out: IC50 for inhibition of gelatinase A activity
Procedure: The potency of inhibitory activity against each matrix metalloproteinases is confirmed as below. The IC50 value for inhibition of gelatinase A activity is determined as follows.
(1) Inhibitory activity against gelatinase A
The progelatinase A (7 μl; in assay buffer (90 μl)) was purified from human normal skin dermal fibroblasts (HNDF). It was activated by the addition of 10 mM of p-aminophenylmercuric acetate (APMA) (10 μl) for 1 hour at 37° C.
The solution of activated gelatinase A (7 μl/tube, 98 μl) was mixed with various concentrations of the test compound or dimethylsulfoxide (2 μl) and gelatin (100 μl) labeled with 0.05% fluorescein isothiocyanate (FITC) and incubated for 2 hours at 37° C. The reaction was terminated by the addition of 0.1M Tris-HCl (pH9.5) containing 94.7% ethanol (750 μl). The mixture was stirred and then allowed to stand for 30 minutes at 0° C. The mixture was centrifuged for 30 minutes at 900×g. The IC50 was determined by measuring the fluorescent intensity in supernatant (Ex=495 nm, and Em=520 nm).

IC50 [nM] | Compound
660 | O=C(O)CNS(=O)(=O)c1ccc(NC(=O)c2ccccc2)cc1 [Example 2(10), N-[[4-(Benzoylamino)phenyl]sulfonyl]glycine]
800 | O=C(O)CNS(=O)(=O)c1ccc(NC(=O)c2ccc(F)cc2)cc1 [Example 2(11), N-[[4-(4-Fluorobenzoylamino)phenyl]sulfonyl]glycine]
13 | CCCCCc1ccc(C(=O)Nc2ccc(S(=O)(=O)NCC(=O)O)cc2)cc1 [Example 2(35), N-[[4-(4-Pentylbenzoylamino)phenyl]sulfonyl]glycine]
2.3 | CCCCCc1ccc(C(=O)Nc2ccc(S(=O)(=O)N[C@H](Cc3ccccc3)C(=O)O)cc2)cc1 [Example 2(63), N-[[4-(4-Pentylbenzoylamino)phenyl]sulfonyl]-D-phenylalanine]
2.7 | Cc1ccc(C(=O)Nc2ccc(S(=O)(=O)N[C@H](Cc3c[nH]c4ccccc34)C(=O)O)cc2)cc1 [Example 3(13), N-[[4-(p-Toluoylamino)phenyl]sulfonyl]-D-tryptophan]
700 | N=C(N)c1ccc(OC(=O)c2ccc(S(=O)(=O)N[C@@H](Cc3ccccc3)C(=O)O)cc2)cc1 [Example 10(1), N-[[4-(4-Amidinophenoxycarbonyl)phenyl]sulfonyl]-L-phenylalanine methansulfonate]
110 | Cc1ccc(C(=O)Nc2ccc(S(=O)(=O)NCC(=O)O)cc2)cc1 [compound 2]
420 | O=C(O)CNS(=O)(=O)c1ccc(OC(=O)c2ccccc2)cc1 [compound 6]

— patent US6403644B1, “Method of treating disease with sulfonylamino acid derivatives” (Ono Pharmaceutical Co., Ltd., priority 1995, dated 2002)
